# Target: T1, Syk kinase (Homo sapiens, UniProt P43405)
# T1 construct: purchased Millipore 14-314
# Assay: ELISA-based Syk kinase assay (phosphorylation of HS1 peptide substrate by isolated Syk kinase)
# Type: biochemical
# Details: IC50 of Syk kinase inhibition; 2 μM ATP, 2 μM peptide substrate
# Protocol: Compounds were tested for the ability to inhibit Syk kinase catalyzed phosphorylation of a peptide substrate in an assay with isolated Syk kinase.
# An assay was carried out in a Costar white 96 well plate (Fisher Scientific, Cat No. 07-200-591) coated overnight with 0.01 mg/ml Neutravidin (Pierce, 100 μl/well) at 4° C. Neutravidin pre-coated 96 well plates were blocked with 2% BSA in PBST buffer for at least 1 hour before starting the assay at room temperature. Serially diluted compound stock solution containing a subject compound was prepared separately in DMSO solution starting from 300 μM and 2 μl of this diluted compound (3% DMSO final concentration) was added directly to neutravidin coated assay plate containing 55.5 μl/well of kinase reaction buffer composed of 20 mM HEPES, pH 7.4, 5 mM MgCl2, 2 mM MnCl2, 1 mM DTT, 0.01% Tween 20 pre-mixed with ATP and kinase substrate (HS1 peptide). Reaction was initiated by adding of 2.5 μl/well Syk kinase (Millipore, Cat No. 14-314) resulting in a final reaction volume of 60 μl and then the reaction was allowed to continue for 30 minutes at room temperature. Final enzyme reaction conditions were 20 mM HEPES, pH 7.4, 5 mM MgCl2, 2 mM MnCl2, 1 mM DTT, 0.01% Tween 20, 0.25 ng Syk, 2 μM ATP, 2 μM peptide substrate (Biotin-EQEDEPEGDYEEVLE-CONH2, SynPep Corporation). After completing the reaction, assay plate was washed three times with PBST and incubated for 1 hour at room temperature with 100 μl/well of phosphopeptide detection antibody solution prepared by mixing 1-1000 diluted mouse anti-pTyr monoclonal antibody (Cell Signal Technology, Cat No. 9411) and 1-1000 diluted goat HRP-conjugated anti-mouse IgG (Jackson Immunoresearch, Cat. No. 115-035-003). Before developing the plate with supersignal ELISA pico chemiluminescent substrate (Pierce), plate was washed three times again with PBST and were read on a SpectraMax M5 microplate reader (Moleculear Devices).
row,IC50 [µM],SMILES
1,3 to 25,N#Cc1cccc(Nc2c(-c3ccc4c(c3)NC(=O)CO4)[nH]c3c(C#N)cnn23)c1 [Compound 9]
2,> 25,COc1cc(-c2[nH]c3c(C#N)cnn3c2NC(C)(C)CC(C)(C)C)cc(OC)c1OC [Compound 11]
3,3 to 25,COc1cc(-c2[nH]c3c(C#N)cnn3c2N)cc(OC)c1OC [Compound 17]
4,3 to 25,COc1cc(-c2[nH]c3c(C#N)cnn3c2NC(=O)c2ccc(C(F)(F)F)c(F)c2)cc(OC)c1OC [Compound 18]
5,3 to 25,COc1cc(-c2[nH]c3c(C#N)cnn3c2NC(=O)c2ccccc2)cc(OC)c1OC [Compound 19]
6,3 to 25,COc1cc(-c2[nH]c3c(C#N)cnn3c2NC(=O)c2ccc(F)cc2)cc(OC)c1OC [Compound 20]
7,> 25,COc1cccc(C(=O)Nc2c(-c3cc(OC)c(OC)c(OC)c3)[nH]c3c(C#N)cnn23)c1 [Compound 21]
8,0.51 to 2.99,COc1cc(-c2[nH]c3c(C#N)cnn3c2Nc2ccc(Cl)c(Cl)c2)cc(OC)c1OC [Compound 22]
9,3 to 25,COc1cc(Nc2c(-c3ccc4cc[nH]c4c3)[nH]c3c(C#N)cnn23)cc(OC)c1OC [Compound 26]
10,0.51 to 2.99,N#Cc1cnn2c(Nc3ccc(N4CCOCC4)cc3)c(-c3ccc4cc[nH]c4c3)[nH]c12 [Compound 27]
11,3 to 25,COc1cc(Nc2c(-c3cc(OC)c(OC)c(OC)c3)[nH]c3c(C#N)cnn23)cc(OC)c1OC [Compound 29]
12,0.51 to 2.99,CC(=O)Nc1cccc(Nc2c(-c3ccc4c(c3)NC(=O)CO4)[nH]c3c(C#N)cnn23)c1 [Compound 31]
13,3 to 25,CC(=O)Nc1ccc(-c2[nH]c3c(C#N)cnn3c2Nc2cccc(NC(C)=O)c2)cc1 [Compound 34]
14,3 to 25,COc1cccc(CNc2c(-c3ccc4c(c3)NC(=O)CO4)[nH]c3c(C#N)cnn23)c1 [Compound 35]
15,3 to 25,COc1ccc(Nc2c(-c3ccc(F)cc3F)[nH]c3c(C#N)cnn23)cc1OC [Compound 36]
16,0.51 to 2.99,COc1ccc(Nc2c(-c3ccc(F)c(F)c3)[nH]c3c(C#N)cnn23)cc1OC [Compound 37]
17,3 to 25,COc1cc(-c2[nH]c3c(C#N)cnn3c2NC(=O)c2nnc(-c3ccccc3)o2)cc(OC)c1OC [Compound 39]
18,3 to 25,COc1ccc(CCNc2c(-c3ccc4c(c3)NC(=O)CO4)[nH]c3c(C#N)cnn23)cc1OC [Compound 40]
19,> 25,COc1ccc(CCNc2c(-c3cc(OC)c(OC)c(OC)c3)[nH]c3c(C#N)cnn23)cc1OC [Compound 41]
20,> 25,COc1ccc(CC(=O)Nc2c(-c3cc(OC)c(OC)c(OC)c3)[nH]c3c(C#N)cnn23)cc1OC [Compound 42]

row,IC50 [µM],SMILES
1,3 to 25,COc1cccc(CNc2c(-c3cc(OC)c(OC)c(OC)c3)[nH]c3c(C#N)cnn23)c1 [Compound 46]
2,> 25,COc1cc(-c2[nH]c3c(C#N)cnn3c2NC(=O)CBr)cc(OC)c1OC [Compound 53]
3,> 25,COc1cc(-c2[nH]c3c(C#N)cnn3c2NC(=O)COc2ccccc2)cc(OC)c1OC [Compound 54]
4,3 to 25,COc1ccc(Nc2c(Cc3ccccc3)[nH]c3c(C#N)cnn23)cc1OC [Compound 55]
5,3 to 25,COc1ccc(Nc2c(-c3cc(F)c(F)c(F)c3)[nH]c3c(C#N)cnn23)cc1OC [Compound 57]
6,0.51 to 2.99,COc1ccc(Nc2c(-c3cc(Cl)c(OC)c(OC)c3)[nH]c3c(C#N)cnn23)cc1OC [Compound 58]
7,0.51 to 2.99,COc1cc(-c2[nH]c3c(C#N)cnn3c2Nc2ccc(OC)c(OC)c2)ccc1F [Compound 59]
8,3 to 25,N#Cc1cnn2c(Nc3ccc4c(c3)OCCO4)c(-c3ccc4cc[nH]c4c3)[nH]c12 [Compound 60]
9,3 to 25,COc1ccc2c(-c3[nH]c4c(C#N)cnn4c3Nc3ccc(NC(C)=O)cc3)c[nH]c2c1 [Compound 62]
10,3 to 25,CC(=O)Nc1ccc(Nc2c(-c3ccc4c(c3)OCCO4)[nH]c3c(C#N)cnn23)cc1 [Compound 63]
11,0.51 to 2.99,COc1cc(-c2[nH]c3c(C#N)cnn3c2Nc2ccc(CNC(=O)OC(C)(C)C)cc2)cc(OC)c1OC [Compound 65]
12,3 to 25,COc1cc(-c2[nH]c3c(C#N)cnn3c2Nc2ccc(CN)cc2)cc(OC)c1OC [Compound 66]
13,0.51 to 2.99,COC(=O)c1cccc(Nc2c(-c3cc(OC)c(OC)c(OC)c3)[nH]c3c(C#N)cnn23)c1 [Compound 67]
14,3 to 25,CC(=O)Nc1ccc(Nc2c(-c3ccc4c(c3)NC(=O)CO4)[nH]c3c(C#N)cnn23)cc1 [Compound 68]
15,0.51 to 2.99,COc1ccc(-c2[nH]c3c(C#N)cnn3c2Nc2ccc(NC(C)=O)cc2)cc1OC [Compound 69]
16,0.51 to 2.99,COc1cc(-c2[nH]c3c(C#N)cnn3c2Nc2ccc3c(c2)OCCO3)cc(O)c1OC [Compound 70]
17,0.51 to 2.99,COC(=O)c1ccc(Nc2c(-c3cc(O)c(OC)c(OC)c3)[nH]c3c(C#N)cnn23)cc1 [Compound 71]
18,3 to 25,COc1cc(-c2[nH]c3c(C#N)cnn3c2NCC2CCN(C(=O)OC(C)(C)C)CC2)cc(OC)c1OC [Compound 73]
19,3 to 25,COc1cc(-c2[nH]c3c(C#N)cnn3c2NCC2CCNCC2)cc(OC)c1OC [Compound 74]
20,0.51 to 2.99,COc1cc(-c2[nH]c3c(C#N)cnn3c2Nc2ccc(N3CCC(N4CCCC4)CC3)c(F)c2)cc(OC)c1OC [Compound 75]

row,IC50 [µM],SMILES
1,3 to 25,COC(=O)[C@H](Cc1ccccc1)Nc1c(-c2cc(OC)c(OC)c(OC)c2)[nH]c2c(C#N)cnn12 [Compound 76]
2,0.51 to 2.99,COC(=O)c1cccc(Nc2c(-c3ccc(OC)c(OC)c3)[nH]c3c(C#N)cnn23)c1 [Compound 77]
3,3 to 25,COC(=O)c1cccc(Nc2c(-c3cc(Cl)c(OC)c(OC)c3)[nH]c3c(C#N)cnn23)c1 [Compound 78]
4,3 to 25,COc1cc(Nc2c(-c3ccc(N4CCOCC4)cc3)[nH]c3c(C#N)cnn23)cc(OC)c1OC [Compound 79]
5,0.51 to 2.99,N#Cc1cnn2c(Nc3ccc(Br)cc3)c(-c3ccc(N4CCOCC4)cc3)[nH]c12 [Compound 80]
6,3 to 25,COc1cc(Nc2c(-c3ccc(C(N)=O)cc3)[nH]c3c(C#N)cnn23)cc(OC)c1OC [Compound 81]
7,3 to 25,COc1ccc(-n2cc(C#N)c3nc(-c4cc(OC)c(OC)c(OC)c4)c(N)n32)cc1 [Compound 82]
8,0.51 to 2.99,COC(=O)COc1ccc(-c2[nH]c3c(C#N)cnn3c2Nc2cccc(C(=O)OC)c2)cc1OC [Compound 84]
9,0.51 to 2.99,COC(=O)c1cccc(Nc2c(-c3ccc(OC)c(OCC(=O)O)c3)[nH]c3c(C#N)cnn23)c1 [Compound 86]
10,0.51 to 2.99,COc1cc(-c2[nH]c3c(C#N)cnn3c2Nc2cccc(OC(F)(F)F)c2)cc(OC)c1OC [Compound 110]
11,0.51 to 2.99,COc1ccc(Nc2c(-c3cc(OC)c(OC)c(OC)c3)[nH]c3c(C#N)cnn23)cc1OC1CCCC1 [Compound 115]
12,0.51 to 2.99,COc1cc(-c2[nH]c3c(C#N)cnn3c2Nc2ccc(C)c(F)c2)cc(OC)c1OC [Compound 121]
13,0.51 to 2.99,COC(=O)COc1ccc(-c2[nH]c3c(C#N)cnn3c2Nc2ccc(F)c(OC)c2)cc1OC [Compound 123]
14,0.51 to 2.99,COc1cc(Nc2c(-c3cc(OC)c(OC)c(OC)c3)[nH]c3c(C#N)cnn23)ccc1OC1CCCC1 [Compound 128]
15,0.51 to 2.99,COc1cc(Nc2c(-c3cc(OC)c(OC)c(OC)c3)[nH]c3c(C#N)cnn23)ccc1OCCN1CCCC1 [Compound 129]
16,0.51 to 2.99,COc1cc(-c2[nH]c3c(C#N)cnn3c2Nc2ccc(F)c(C(F)(F)F)c2)cc(OC)c1OC [Compound 130]
17,0.51 to 2.99,COc1cc(-c2[nH]c3c(C#N)cnn3c2Nc2ccc(OC(F)(F)F)cc2)cc(OC)c1OC [Compound 131]
18,0.51 to 2.99,COc1cc(-c2[nH]c3c(C#N)cnn3c2Nc2ccc(N3CCCC3)c(F)c2)cc(OC)c1OC [Compound 134]
